Results on two compounds are retold here after patent US9814233B2, “Composition comprising a pesticide, a surfactant and an alkoxylate of 2-propyheptylamine” (BASF SE, priority 2011, dated 2017).

The subject of test [1] is winter wheat (cultivar Cubus). Briefly: Greenhouse test of herbicidal activity of glyphosate spray mixtures on winter wheat. Type of test: in vivo. Conditions: after 21 days. On the procedure:
(§1) For the greenhouse tests, winter wheat (cultivar Cubus) and soybean (cultivar Oxford) were sown or potted in loamy sandy soil to a depth of 1-2 cm. When the plants had reached a growth height of 10 to 25 cm (i.e., around 10 to 21 days after sowing), the spray mixtures were applied to the plants in a spraying cabin.
(§2) A concentrated formulation comprising glyphosate isopropylammonium in solution in water comprising the surfactants stated and amine alkoxylate A from Example 1 was diluted with deionized water and applied at a water application rate of 375 l/ha (140 g or 280 g of glyphosate/ha). The temperatures in the experimental period were between 18-35° C. During this time, the experimental plants received optimum watering, with nutrients being supplied via the water used for watering.
(§3) The herbicidal activity was evaluated by awarding scores to the treated plants (four each time) in comparison to the untreated control plants. The evaluation scale ranges from 0% to 100% activity. 100% activity means the complete death at least of those parts of the plant that are above ground.

The test system of test [2] is soybean (cultivar Oxford). Briefly: Greenhouse test of herbicidal activity of glyphosate spray mixtures on soybean. The format is in vivo. Conditions: after 21 days. The procedure:
as §1, §2, §3

The mark [3] stands for this setting: 140 g/ha glyphosate, without amine alkoxylate/surfactant.
The mark [4] stands for this setting: 280 g/ha glyphosate, without amine alkoxylate/surfactant.
The mark [5] stands for this setting: 140 g/ha glyphosate, amount 300 g/ha.
Where [6] appears, read: 280 g/ha glyphosate, amount 300 g/ha.

In the case of `CC(C)N.O=C(O)CNCP(=O)(O)O` [Without, glyphosate isopropylammonium], the Winter wheat efficacy worked out at 53% in test [1] (setting [3]) and 68% in test [1] (setting [4]). Also, the Soybean efficacy in test [2] (setting [3]) and in test [2] (setting [4]) was 10% each time.
Regarding “C10-13-alkylbenzenesulfonate, free acid [Surfactant A]”, the Winter wheat efficacy in test [1] (setting [5]) worked out at 84%; in test [1] (setting [6]), 90%. Also, the Soybean efficacy was determined as 64% in test [2] (setting [5]) and 71% in test [2] (setting [6]).
